Results published in patent US9469642B2, “Purinone compounds as kinase inhibitors” (Pharmacyclics LLC, priority 2012, dated 2016).

Tests used:
Type in all cases: biochemical
LCK = LCK (Homo sapiens, UniProt P06239); experiment: Kinase panel inhibition, LCK (one of the methods of Example 76a, 76b, 76c)
Experimental: (§1) Btk kinase activity is determined using a time-resolved fluorescence resonance energy transfer (TR-FRET) methodology. Measurements are performed in a reaction volume of 50 μL using 96-well assay plates. Kinase enzyme, inhibitor, ATP (at the Km for the kinase), and 1 peptide substrate (Biotin-AVLESEEELYSSARQ-NH2) are incubated in a reaction buffer composed of 20 mM Tris, 50 mM NaCl, MgCl2 (5-25 mM depending on the kinase), MnCl2 (0-10 mM), 1 mM DTT, 0.1 mM EDTA, 0.01% bovine serum albumin, 0.005% Tween-20, and 10% DMSO at pH 7.4 for one hour. The reaction is quenched by the addition of 1.2 equivalents of EDTA (relative to divalent cation) in 25 μL of 1× Lance buffer (Perkin-Elmer). Streptavidin-APC (Perkin-Elmer) and Eu-labeled p-Tyr100 antibody (Perkin-Elmer) in 1× Lance buffer are added in a 25 μL volume to give final concentrations of 100 nM and 2.5 nM, respectively, and the mixture is allowed to incubate for one hour. The TR-FRET signal is measured on a multimode plate reader with an excitation wavelength (λEx) of 330 nm and detection wavelengths (λEm) of 615 and 665 nm. Activity is determined by the ratio of the fluorescence at 665 nm to that at 615 nm. For each compound, enzyme activity is measured at various concentrations of compound. Negative control reactions are performed in the absence of inhibitor in replicates of six, and two no-enzyme controls are used to determine baseline fluorescence levels. Inhibition constants, Ki(app), were obtained using the program BatchKi (Kuzmic et al. (2000), Anal. Biochem. 286:45-50). IC50s are obtained according to the equation: IC50=[…]+[E]total/2;
(§2) For all kinases, [ATP]=Km^ATP, [Btk]total=0.5 nM and [Lck]total=6 nM.
(§3) Kinase activity is measured in vitro using electrophoretic mobility shift assay. The kinase reactions are assembled in a total volume of 25 μL in 384 well plates. The reactions comprise: BTK enzyme (1 nM, N-terminal His6-tagged, recombinant, full-length, human BTK purified from baculovirus Sf21 insect cell system), inhibitor, ATP (16 μM, the apparent Km for the kinase), fluorescently labeled peptide substrate (1 μM, FAM-GEEPLYWSFPAKKK-NH2) in a reaction buffer composed of 100 mM HEPES, pH7.5, 5 mM MgCl2 1 mM DTT, 0.1% bovine serum albumin, 0.01% Triton X-100, and 1% DMSO. The reaction is incubated for one hour and is quenched by the addition of 45 μL of termination buffer (100 mM HEPES, pH7.5, 0.01% Triton X-100, 30 mM EDTA). The terminated reactions are analyzed using 12 channel LabChip® 3000 microfluidic detection instrument (Caliper Life Sciences). The enzymatic phosphorylation of the peptide results in a change in net charge, enabling electrophoretic separation of product from substrate peptide. As substrate and product peptides are separated, two peaks of fluorescence are observed. Change in the relative fluorescence intensity of the substrate and product peaks is the parameter measured, reflecting enzyme activity. In the presence of an inhibitor, the ratio between product and substrate is altered:the signal of the product decreases, while the signal of the substrate increases.
(§4) Activity in each sample is determined as the product to sum ratio (PSR):P/(S+P), where P is the peak height of the product peptide and S is the peak height of the substrate peptide. For each compound, enzyme activity is measured at various concentrations (12 concentrations of compound spaced by 3× dilution intervals). Negative control samples (0%-inhibition in the absence of inhibitor) and positive control samples (100%-inhibition, in the presence of 20 mM EDTA) are assembled in replicates of four and are used to calculate %-inhibition values for each inhibitor at each concentration. Percent inhibition (Pinh) is determined using following equation: […]

BTK = biological target: T1, BTK (Homo sapiens, UniProt Q06187); experiment: Btk in vitro inhibitory activity (kinase assay by one of Methods A, B or C)
T1 construct: purified from insect cells as a full-length construct containing a N-terminal 6×-His tag; His6 (N); host or cells: insect cells (baculovirus Sf21)
T1 sequence (Q06187 whole entry): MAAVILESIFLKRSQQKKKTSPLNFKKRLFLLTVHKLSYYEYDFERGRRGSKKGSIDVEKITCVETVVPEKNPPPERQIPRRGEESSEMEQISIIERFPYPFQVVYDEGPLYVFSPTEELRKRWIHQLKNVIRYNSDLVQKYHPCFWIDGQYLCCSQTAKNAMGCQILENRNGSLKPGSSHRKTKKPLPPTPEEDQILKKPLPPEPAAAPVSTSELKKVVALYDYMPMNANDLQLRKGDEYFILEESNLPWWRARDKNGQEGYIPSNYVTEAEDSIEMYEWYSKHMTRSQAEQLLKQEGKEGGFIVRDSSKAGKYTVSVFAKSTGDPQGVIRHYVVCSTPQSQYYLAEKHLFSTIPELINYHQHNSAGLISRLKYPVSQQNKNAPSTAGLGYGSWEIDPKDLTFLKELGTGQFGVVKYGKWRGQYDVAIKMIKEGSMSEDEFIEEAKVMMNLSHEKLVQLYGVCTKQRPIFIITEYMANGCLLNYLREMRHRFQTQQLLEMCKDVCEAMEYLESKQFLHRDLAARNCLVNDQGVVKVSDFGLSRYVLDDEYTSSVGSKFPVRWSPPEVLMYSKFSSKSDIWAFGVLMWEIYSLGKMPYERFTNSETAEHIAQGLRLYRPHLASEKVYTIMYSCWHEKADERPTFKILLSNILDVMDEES
Experimental: as §1, §2, §3, §4

EGFR = EGFR (Homo sapiens, UniProt P00533); experiment: Kinase panel inhibition, EGFR (one of the methods of Example 76a, 76b, 76c)
Sequence of EGFR (P00533 25-1210, species assumed): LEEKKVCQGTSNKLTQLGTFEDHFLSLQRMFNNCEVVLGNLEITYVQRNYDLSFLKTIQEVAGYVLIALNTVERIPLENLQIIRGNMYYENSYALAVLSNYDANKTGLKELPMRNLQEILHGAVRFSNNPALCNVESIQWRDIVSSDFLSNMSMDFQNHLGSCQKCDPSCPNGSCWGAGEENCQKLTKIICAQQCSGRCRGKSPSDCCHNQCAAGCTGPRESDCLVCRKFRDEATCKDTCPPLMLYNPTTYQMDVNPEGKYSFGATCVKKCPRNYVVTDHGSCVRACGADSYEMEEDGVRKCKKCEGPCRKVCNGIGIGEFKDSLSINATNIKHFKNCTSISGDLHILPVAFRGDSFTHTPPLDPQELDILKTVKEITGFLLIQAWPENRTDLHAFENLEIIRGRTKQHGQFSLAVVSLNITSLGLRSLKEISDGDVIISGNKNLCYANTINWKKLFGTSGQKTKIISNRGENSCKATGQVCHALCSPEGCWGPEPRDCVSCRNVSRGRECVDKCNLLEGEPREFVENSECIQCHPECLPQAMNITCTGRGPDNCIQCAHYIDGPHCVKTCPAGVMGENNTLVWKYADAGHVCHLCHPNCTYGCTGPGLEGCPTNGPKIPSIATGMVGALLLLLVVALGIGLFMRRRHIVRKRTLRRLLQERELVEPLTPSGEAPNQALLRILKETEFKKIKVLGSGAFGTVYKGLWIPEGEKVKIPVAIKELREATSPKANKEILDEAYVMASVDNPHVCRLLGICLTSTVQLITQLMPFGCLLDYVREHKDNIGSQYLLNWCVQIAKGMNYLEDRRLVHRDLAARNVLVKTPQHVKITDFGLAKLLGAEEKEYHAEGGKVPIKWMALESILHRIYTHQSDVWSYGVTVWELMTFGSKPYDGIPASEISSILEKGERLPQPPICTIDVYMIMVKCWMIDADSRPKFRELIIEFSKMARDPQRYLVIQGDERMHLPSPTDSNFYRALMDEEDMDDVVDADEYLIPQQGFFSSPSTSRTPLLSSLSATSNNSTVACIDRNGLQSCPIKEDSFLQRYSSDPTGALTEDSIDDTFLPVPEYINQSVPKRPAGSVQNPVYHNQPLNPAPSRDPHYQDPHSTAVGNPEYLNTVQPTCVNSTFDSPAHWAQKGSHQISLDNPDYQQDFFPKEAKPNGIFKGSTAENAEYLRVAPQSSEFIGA
Experimental: as §1, §2, §3, §4

Sequence of LCK (P06239 whole entry, species assumed): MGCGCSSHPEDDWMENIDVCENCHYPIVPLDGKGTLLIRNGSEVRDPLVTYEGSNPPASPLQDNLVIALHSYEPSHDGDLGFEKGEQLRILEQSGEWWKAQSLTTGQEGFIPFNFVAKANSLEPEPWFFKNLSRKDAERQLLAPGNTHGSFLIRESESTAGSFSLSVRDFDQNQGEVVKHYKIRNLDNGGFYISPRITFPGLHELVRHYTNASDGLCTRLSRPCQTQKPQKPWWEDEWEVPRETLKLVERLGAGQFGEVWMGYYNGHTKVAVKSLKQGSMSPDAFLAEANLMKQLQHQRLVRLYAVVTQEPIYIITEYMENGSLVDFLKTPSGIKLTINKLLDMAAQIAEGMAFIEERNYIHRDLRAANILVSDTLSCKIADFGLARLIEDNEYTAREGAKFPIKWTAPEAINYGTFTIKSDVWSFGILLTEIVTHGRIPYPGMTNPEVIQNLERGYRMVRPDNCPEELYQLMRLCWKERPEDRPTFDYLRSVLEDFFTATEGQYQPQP

| SMILES | IC50 (LCK) [nM] | IC50 (BTK) [nM] | IC50 (EGFR) [nM] |
| --- | --- | --- | --- |
| CN(C)C/C=C/C(=O)Nc1cccc(-n2c(=O)n(-c3ccc(Oc4ccccc4)cc3)c3c(N)ncnc32)c1 [Compound 8, (E)-N-(3-(6-amino-8-oxo-7-(4-phenoxyphenyl)-7H-purin-9(8H)-yl)phenyl)-4-(dimethylamino)but-2-enamide] | 100 to 1000 | < 100 | < 100 |
| CN(C/C=C/C(=O)Nc1cccc(-n2c(=O)n(-c3ccc(Oc4ccccc4)cc3)c3c(N)ncnc32)c1)C1CC1 [Compound 9, (E)-N-(3-(6-amino-8-oxo-7-(4-phenoxyphenyl)-7H-purin-9(8H)-yl)phenyl)-4-(cyclopropyl(methyl)amino)but-2-enamide] | 100 to 1000 | < 100 | < 100 |
| CN(C/C=C/C(=O)Nc1cccc(-n2c(=O)n(-c3ccc(Oc4ccccc4)cc3)c3c(N)ncnc32)c1)C1CCC1 [Compound 10, (E)-N-(3-(6-amino-8-oxo-7-(4-phenoxyphenyl)-7H-purin-9(8H)-yl)phenyl)-4-(cyclobutyl(methyl)amino)but-2-enamide] | 100 to 1000 | < 100 | < 100 |
| C=CC(=O)Nc1cccc(-n2c(=O)n(-c3ccc(Oc4ccccc4)cc3)c3c(N)ncnc32)c1 [Compound 11, N-(3-(6-amino-8-oxo-7-(4-phenoxyphenyl)-7H-purin-9(8H)-yl)phenyl)acrylamide] | < 100 | < 100 | < 100 |
| CN(C)C/C=C/C(=O)Nc1cccc(-n2c(=O)n(-c3ccc(Cl)cc3)c3c(N)ncnc32)c1 [Compound 14, (E)-N-(3-(6-amino-7-(4-chlorophenyl)-8-oxo-7H-purin-9(8H)-yl)phenyl)-4-(dimethylamino)but-2-enamide] | 1000 to 10000 | < 100 | 1000 to 10000 |
| COc1cc(-n2c(=O)n(-c3cccc(NC(=O)/C=C/CN(C)C)c3)c3ncnc(N)c32)ccc1C [Compound 17, (E)-N-(3-(6-amino-7-(3-methoxy-4-methylphenyl)-8-oxo-7H-purin-9(8H)-yl)phenyl)-4-(dimethylamino)but-2-enamide] | 1000 to 10000 | < 100 | 1000 to 10000 |
| CN(C)C/C=C/C(=O)N(C)c1cccc(-n2c(=O)n(-c3ccc(Cl)cc3)c3c(N)ncnc32)c1 [Compound 27, (E)-N-(3-(6-amino-7-(4-chlorophenyl)-8-oxo-7H-purin-9(8H)-yl)phenyl)-4-(dimethylamino)-N-methylbut-2-enamide] | > 10000 | < 100 | > 10000 |
| COc1cc(-n2c(=O)n(-c3cccc(N(C)C(=O)/C=C/CN(C)C)c3)c3ncnc(N)c32)ccc1C [Compound 30, (E)-N-(3-(6-amino-7-(3-methoxy-4-methylphenyl)-8-oxo-7H-purin-9(8H)-yl)phenyl)-4-(dimethylamino)-N-methylbut-2-enamide] | > 10000 | < 100 | > 10000 |
| CN(C(=O)/C=C/CN(C)C1CCC1)c1cccc(-n2c(=O)n(-c3ccc(Oc4ccccc4)cc3)c3c(N)ncnc32)c1 [Compound 35, (E)-N-(3-(6-amino-8-oxo-7-(4-phenoxyphenyl)-7H-purin-9(8H)-yl)phenyl)-4-(cyclobutyl(methyl)amino)-N-methylbut-2-enamide] |  | < 100 |  |
| C=CC(=O)N(C)c1cccc(-n2c(=O)n(-c3ccc(C)c(OC)c3)c3c(N)ncnc32)c1 [Compound 76, N-(3-(6-amino-7-(3-methoxy-4-methylphenyl)-8-oxo-7H-purin-9(8H)-yl)phenyl)-N-methylacrylamide] |  | < 100 |  |
| C=CC(=O)N(C)c1cccc(-n2c(=O)n(-c3ccc(Cl)cc3)c3c(N)ncnc32)c1 [Compound 77, N-(3-(6-amino-7-(4-chlorophenyl)-8-oxo-7H-purin-9(8H)-yl)phenyl)-N-methylacrylamide] |  | < 100 |  |
| C=CC(=O)N1CC[C@@H](n2c(=O)n(-c3ccc(Cl)cc3)c3c(N)ncnc32)C1 [Compound 78, (R)-9-(1-acryloylpyrrolidin-3-yl)-6-amino-7-(4-chlorophenyl)-7H-purin-8(9H)-one] |  | < 100 |  |
| C=CC(=O)N1CC[C@@H](n2c(=O)n(-c3ccc(C)c(OC)c3)c3c(N)ncnc32)C1 [Compound 82, (R)-9-(1-acryloylpyrrolidin-3-yl)-6-amino-7-(3-methoxy-4-methylphenyl)-7H-purin-8(9H)-one] |  | < 100 |  |
| C=CC(=O)N1CCC[C@@H](n2c(=O)n(-c3ccc(Cl)cc3)c3c(N)ncnc32)C1 [Compound 90, (R)-9-(1-acryloylpiperidin-3-yl)-6-amino-7-(4-chlorophenyl)-7H-purin-8(9H)-one] |  | < 100 |  |
| C=CC(=O)N1CCC[C@@H](n2c(=O)n(-c3ccc(C)c(OC)c3)c3c(N)ncnc32)C1 [Compound 93, (R)-9-(1-acryloylpiperidin-3-yl)-6-amino-7-(3-methoxy-4-methylphenyl)-7H-purin-8(9H)-one] |  | < 100 |  |
| Nc1ncnc2c1n(-c1ccc(Oc3ccccc3)cc1)c(=O)n2-c1cccc(NC(=O)/C=C/CNC2CC2)c1 [Compound 116, (E)-N-(3-(6-amino-8-oxo-7-(4-phenoxyphenyl)-7H-purin-9(8H)-yl)phenyl)-4-(cyclopropylamino)but-2-enamide] |  | < 100 |  |
| COc1ccc(N(C)C(=O)/C=C/CN(C)C2CC2)cc1-n1c(=O)n(-c2ccc(Oc3ccccc3)cc2)c2c(N)ncnc21 [Compound 181, (E)-N-(3-(6-amino-8-oxo-7-(4-phenoxyphenyl)-7H-purin-9(8H)-yl)-4-methoxyphenyl)-4-(cyclopropyl(methyl)amino)-N-methylbut-2-enamide] |  | 100 to 1000 |  |
| COc1cc(NC(=O)/C=C/CN(C)C2CC2)cc(-n2c(=O)n(-c3ccc(Oc4ccccc4)cc3)c3c(N)ncnc32)c1 [Compound 263, (E)-N-(3-(6-amino-8-oxo-7-(4-phenoxyphenyl)-7H-purin-9(8H)-yl)-5-methoxyphenyl)-4-(cyclopropyl(methyl)amino)but-2-enamide] |  | < 100 |  |
| CN(C(=O)/C=C/CN(C)C1CC1)c1cccc(-n2c(=O)n(-c3ccc(Oc4ccc(O)cc4)cc3)c3c(N)ncnc32)c1 [Compound 269, (E)-N-(3-(6-amino-7-(4-(4-hydroxyphenoxy)phenyl)-8-oxo-7H-purin-9(8H)-yl)phenyl)-4-(cyclopropyl(methyl)amino)-N-methylbut-2-enamide] |  | < 100 |  |
| CN(C(=O)/C=C/CN(C)C1CC1)c1cccc(-n2c(=O)n(-c3ccc(NC(=O)c4ccccc4)cc3)c3c(N)ncnc32)c1 [Compound 274, (E)-N-(4-(6-amino-9-(3-(4-(cyclopropyl(methyl)amino)-N-methylbut-2-enamido)phenyl)-8-oxo-8,9-dihydro-7H-purin-7-yl)phenyl)benzamide] |  | < 100 |  |
| CN(C(=O)/C=C/CN(C)C1CC1)c1cccc(-n2c(=O)n(-c3ccc(C(=O)Nc4ccccc4)cc3)c3c(N)ncnc32)c1 [Compound 280, (E)-4-(6-amino-9-(3-(4-(cyclopropyl(methyl)amino)-N-methylbut-2-enamido)phenyl)-8-oxo-8,9-dihydro-7H-purin-7-yl)-N-phenylbenzamide] |  | 100 to 1000 |  |
| CN(C(=O)/C=C/CN)c1cccc(-n2c(=O)n(-c3ccc(Oc4ccccc4)cc3)c3c(N)ncnc32)c1 [Compound 326, (E)-4-amino-N-(3-(6-amino-8-oxo-7-(4-phenoxyphenyl)-7H-purin-9(8H)-yl)phenyl)-N-methylbut-2-enamide] |  | 100 to 1000 |  |
